Some test systems named below: A498; HCT-116; HCT-15; HOP-62; HT-29; M14; MCF7; MDA-MB-435; NCI-H226; NCI-H23; NCI-H460; OVCAR-5; OVCAR-8; SF-295; SK-OV-3; SNB-75; T47D; UACC-257; UACC-62.
Assay in all cases: NCI anticancer screen, dose series, 48 h

The structures appear in SMILES notation.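 These data come from cells grown in 96-well plates and exposed to compound for 48 hours at five concentrations. GI50 marks 50% less growth.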 Calls of active or inactive are those of the source. Cut-off read from the data, not from the text of the source: active = GI50 up to about 1.1 µM and inactive = higher. Where only a bound is given, the exact number is not on record here.

As for `CCCC(C)NC(=O)c1ccc(N(C)Cc2cnc3nc(N)nc(N)c3n2)cc1` (configuration not stated), the GI50 with A498 was 69 µM (inactive); in the test with HCT-116 it was 5.16 µM (inactive); with HCT-15, 26.4 µM; in the test on HOP-62, 29.5 µM (inactive); with HT-29, 17.6 µM (inactive); in the test with M14 it was 11.5 µM (inactive). Moreover, the GI50 in the test on MCF7 was 23.3 µM (inactive); in the test with MDA-MB-435 it was 11.7 µM (inactive); in the test with NCI-H226, 19.1 µM (inactive); in the test on NCI-H23, 29.4 µM (inactive); with NCI-H460 it was 21.5 µM (inactive); with OVCAR-5, 29.3 µM (inactive). Further, the GI50 was 14.9 µM (inactive) in the test on OVCAR-8; 27.6 µM (inactive) with SF-295; 41.6 µM (inactive) in the test with SK-OV-3; 24.4 µM (inactive) in the test with SNB-75; 24 µM (inactive) with T47D; 15.9 µM (inactive) in the test on UACC-257. Besides, in the test on UACC-62, the GI50 is 6.3 µM (inactive).
Consider `N#C/C(=C\Nc1ccccn1)C(=O)C1CC1`, for which the GI50 in the test on A498 is > 100 µM (inactive); in the test on HCT-116, > 100 µM (inactive); in the test on HCT-15, more than 100 µM; in the test with HOP-62 it was > 100 µM (inactive); in the test with HT-29 it was > 100 µM (inactive); in the test with M14, > 100 µM (inactive). Further, the GI50 in the test on MCF7, in the test with MDA-MB-435, with NCI-H226, in the test on NCI-H23, in the test with NCI-H460 and in the test with OVCAR-5 was > 100 µM (inactive) each time. The GI50 in the test with OVCAR-8, in the test on SF-295, in the test with SK-OV-3, in the test on SNB-75, in the test on T47D and with UACC-257 was > 100 µM (inactive) each time. The GI50 in the test on UACC-62 was > 100 µM (inactive).
`CC1(C)C(=O)C2(C#N)CCC1C2` (configuration not stated): the GI50 in the test with A498 was > 100 µM (inactive); in the test on HCT-116, > 100 µM (inactive); in the test with HCT-15 it was more than 100 µM; in the test with HOP-62 it was > 100 µM (inactive); in the test with HT-29 it was > 100 µM (inactive); in the test on M14, > 100 µM (inactive). In addition, the GI50 in the test on MCF7, with MDA-MB-435, in the test with NCI-H226, in the test with NCI-H23, in the test with NCI-H460 and in the test with OVCAR-5 was > 100 µM (inactive) in each case. Besides, the GI50 in the test on OVCAR-8 is > 100 µM (inactive); in the test on SF-295, > 100 µM (inactive); in the test with SK-OV-3, > 100 µM (inactive); in the test on SNB-75, > 84.7 µM (inactive); with T47D, > 100 µM (inactive); with UACC-257 it was > 100 µM (inactive). Also, the GI50 in the test with UACC-62 was > 100 µM (inactive).
In the case of `Cc1ccc2c(c1)nc(N)n[n+]2[O-]`, the GI50 in the test with A498 was > 100 µM (inactive); in the test on HCT-116, > 100 µM (inactive); in the test on HCT-15 it was more than 100 µM; in the test with HOP-62, > 100 µM (inactive); in the test with HT-29 it was > 100 µM (inactive); with M14, > 100 µM (inactive). The GI50 in the test with MCF7, with MDA-MB-435, in the test with NCI-H226, with NCI-H23, with NCI-H460 and in the test with OVCAR-5 was > 100 µM (inactive) in each case. The GI50 in the test with OVCAR-8 was > 100 µM (inactive); in the test with SF-295, > 100 µM (inactive); in the test with SK-OV-3 it was > 100 µM (inactive); with SNB-75, 85.9 µM (inactive); with T47D it was > 100 µM (inactive); with UACC-257, > 100 µM (inactive). Further, the GI50 in the test on UACC-62 was > 100 µM (inactive).
Consider `OCCCCn1cc(Cn2ncc3c(SCc4ccccc4)ncnc32)nn1`, for which the GI50 is 43.5 µM (inactive) with A498; 33.6 µM (inactive) in the test on HCT-116; 28.3 µM with HCT-15; 44.1 µM (inactive) with HOP-62; 40.5 µM (inactive) with HT-29; 29.9 µM (inactive) in the test with M14. For the same compound, the GI50 in the test with MCF7 was 57 µM (inactive); in the test with MDA-MB-435, 19.9 µM (inactive); in the test on NCI-H226 it was 93.5 µM (inactive); in the test with NCI-H23 it was 54.2 µM (inactive); in the test on NCI-H460 it was 41.4 µM (inactive); with OVCAR-5 it was > 100 µM (inactive). The GI50 in the test on OVCAR-8 is 58.3 µM (inactive); in the test with SF-295, 28.7 µM (inactive); in the test with SK-OV-3 it was 89.1 µM (inactive); in the test on SNB-75 it was 38.7 µM (inactive); in the test with T47D, 32.2 µM (inactive); with UACC-257, 49.4 µM (inactive). Further, in the test on UACC-62, the GI50 was 44.5 µM (inactive).
Take `COC(O)C(=O)c1c2c(cc3c1CCC3)CCC2` (configuration not stated): the GI50 is > 100 µM (inactive) with A498; > 100 µM (inactive) with HCT-116; more than 100 µM with HCT-15; > 100 µM (inactive) in the test on HOP-62; > 100 µM (inactive) with HT-29; > 100 µM (inactive) in the test with M14. Moreover, the GI50 in the test with MCF7, in the test with MDA-MB-435, with NCI-H226, with NCI-H23, in the test on NCI-H460 and with OVCAR-5 was > 100 µM (inactive) in each case. In addition, the GI50 in the test with OVCAR-8, with SF-295, in the test on SK-OV-3, in the test with SNB-75, with T47D and in the test on UACC-257 was > 100 µM (inactive) in each case. Further, the GI50 in the test on UACC-62 is > 100 µM (inactive).
As for `N#CC(C#N)=Cc1c(O)ccc2ccccc12`, the GI50 was 16 µM (inactive) with A498; 11.4 µM (inactive) in the test with HCT-116; 14.1 µM with HCT-15; 20.6 µM (inactive) in the test with HOP-62; 14.5 µM (inactive) in the test on HT-29; 13.8 µM (inactive) in the test on M14. Moreover, the GI50 was 10.1 µM (inactive) with MCF7; 14.4 µM (inactive) with MDA-MB-435; 21.3 µM (inactive) in the test with NCI-H226; 12.2 µM (inactive) in the test on NCI-H23; 14.7 µM (inactive) with NCI-H460; 17 µM (inactive) with OVCAR-5. For the same compound, the GI50 in the test on OVCAR-8 was 16.3 µM (inactive); in the test on SF-295, 15 µM (inactive); in the test with SK-OV-3 it was 15.8 µM (inactive); in the test with SNB-75, 3.3 µM (inactive); in the test with T47D, 13.3 µM (inactive); with UACC-257 it was 16.8 µM (inactive). Besides, in the test with UACC-62, the GI50 was 12.9 µM (inactive).
As to `CC(N/N=C(\S)N1CCCCCC1)c1cccnn1` (configuration not stated), the GI50 was 0.764 µM (active) with A498; 0.325 µM (active) in the test on HCT-116; 0.386 µM with HCT-15; 0.374 µM (active) in the test on HOP-62; 0.483 µM (active) in the test with HT-29; 0.319 µM (active) with M14. The GI50 was 0.258 µM (active) in the test with MCF7; 0.61 µM (active) in the test on MDA-MB-435; 0.618 µM (active) in the test on NCI-H226; 0.254 µM (active) in the test on NCI-H23; 0.274 µM (active) with NCI-H460; 0.316 µM (active) in the test with OVCAR-5. Also, the GI50 was 0.239 µM (active) in the test on OVCAR-8; 0.403 µM (active) in the test on SF-295; 0.409 µM (active) in the test with SK-OV-3; 1.75 µM (inactive) with SNB-75; 0.163 µM (active) in the test with T47D; 0.2 µM (active) in the test with UACC-257. Besides, the GI50 with UACC-62 was 0.264 µM (active).
